Legend:
Assay in all cases: radio-TLC assay of yeast membrane fraction (alcohols + aldehydes)
Format in all cases: biochemical
[1] = molecular target: T1, AdFAR1 (Anser anser, UniProt G9IBF1); conditions: pH 6.5, 37 C
T1 construct: gene FAR1; full-length cDNA from uropygial gland in pYES-DEST52 (primer keeps stop codon); S. cerevisiae BY4741 dga1 lro1 membranes
T1 sequence (G9IBF1 1-515): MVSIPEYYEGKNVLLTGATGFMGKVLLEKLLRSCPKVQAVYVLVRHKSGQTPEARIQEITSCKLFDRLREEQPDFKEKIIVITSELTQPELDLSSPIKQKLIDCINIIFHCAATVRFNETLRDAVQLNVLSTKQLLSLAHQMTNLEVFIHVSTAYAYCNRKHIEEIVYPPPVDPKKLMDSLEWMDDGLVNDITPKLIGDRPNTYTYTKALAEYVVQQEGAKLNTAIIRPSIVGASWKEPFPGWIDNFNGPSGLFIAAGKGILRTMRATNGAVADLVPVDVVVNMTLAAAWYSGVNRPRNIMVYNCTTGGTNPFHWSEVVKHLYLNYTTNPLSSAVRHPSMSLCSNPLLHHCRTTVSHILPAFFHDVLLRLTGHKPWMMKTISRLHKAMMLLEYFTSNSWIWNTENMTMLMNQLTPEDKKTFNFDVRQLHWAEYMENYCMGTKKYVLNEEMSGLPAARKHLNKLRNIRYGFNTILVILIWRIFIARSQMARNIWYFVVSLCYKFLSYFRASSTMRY

[2] = molecular target: T2, TaFAR1 (Tyto alba, UniProt G9IBF2); conditions: labelled 16:0-CoA as co-substrate, NADPH varied; pH 6.5, 37 C
T2 construct: gene FAR1; full-length cDNA from uropygial gland in pYES-DEST52 (primer keeps stop codon); expressed in Saccharomyces cerevisiae BY4741 dga1 lro1; total membrane fraction
T2 sequence (G9IBF2 1-515): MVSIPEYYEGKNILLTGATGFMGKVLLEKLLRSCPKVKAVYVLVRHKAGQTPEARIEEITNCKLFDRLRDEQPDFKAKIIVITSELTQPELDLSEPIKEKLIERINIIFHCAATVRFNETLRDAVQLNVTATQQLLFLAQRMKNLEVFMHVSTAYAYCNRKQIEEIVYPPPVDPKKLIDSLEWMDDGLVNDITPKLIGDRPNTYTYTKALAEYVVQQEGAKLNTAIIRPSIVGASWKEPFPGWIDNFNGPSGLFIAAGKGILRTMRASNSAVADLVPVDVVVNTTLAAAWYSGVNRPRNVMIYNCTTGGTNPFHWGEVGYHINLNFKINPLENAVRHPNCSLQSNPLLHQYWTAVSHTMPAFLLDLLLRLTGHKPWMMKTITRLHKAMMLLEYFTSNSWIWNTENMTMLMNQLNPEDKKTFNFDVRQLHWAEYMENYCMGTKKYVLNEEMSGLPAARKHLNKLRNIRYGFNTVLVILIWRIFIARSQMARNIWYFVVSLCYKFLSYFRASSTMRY

[3] = molecular target: T3, GgFAR1 (Gallus gallus, UniProt Q5ZM72); conditions: labelled acyl-CoA as co-substrate; pH 6.5, 37 C
T3 construct: gene FAR1; uropygial gland cDNA in pYES-DEST52, S. cerevisiae BY4741 dga1 lro1 membranes
T3 sequence (Q5ZM72 1-515): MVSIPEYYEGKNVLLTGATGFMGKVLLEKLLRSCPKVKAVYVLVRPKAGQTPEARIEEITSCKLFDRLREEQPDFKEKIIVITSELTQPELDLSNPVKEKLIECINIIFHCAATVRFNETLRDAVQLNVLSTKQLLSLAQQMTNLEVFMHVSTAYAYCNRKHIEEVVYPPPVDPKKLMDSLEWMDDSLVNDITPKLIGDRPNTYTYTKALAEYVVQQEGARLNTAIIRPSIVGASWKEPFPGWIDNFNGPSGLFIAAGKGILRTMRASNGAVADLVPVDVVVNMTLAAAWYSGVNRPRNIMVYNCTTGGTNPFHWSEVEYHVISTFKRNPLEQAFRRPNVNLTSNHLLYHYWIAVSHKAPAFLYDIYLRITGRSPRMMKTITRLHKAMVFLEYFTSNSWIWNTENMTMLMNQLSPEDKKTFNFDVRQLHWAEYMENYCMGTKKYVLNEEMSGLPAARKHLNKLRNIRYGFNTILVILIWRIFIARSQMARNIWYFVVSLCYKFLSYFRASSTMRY

[4] = molecular target: T4, TaFAR2 (Tyto alba, UniProt G9IBF3); conditions: labelled 18:0-CoA as co-substrate; pH 5.5, 37 C
T4 construct: gene FAR2; full-length cDNA from uropygial gland in pYES-DEST52 (primer keeps stop codon); expressed in Saccharomyces cerevisiae BY4741 dga1 lro1; total membrane fraction
T4 sequence (G9IBF3 1-515): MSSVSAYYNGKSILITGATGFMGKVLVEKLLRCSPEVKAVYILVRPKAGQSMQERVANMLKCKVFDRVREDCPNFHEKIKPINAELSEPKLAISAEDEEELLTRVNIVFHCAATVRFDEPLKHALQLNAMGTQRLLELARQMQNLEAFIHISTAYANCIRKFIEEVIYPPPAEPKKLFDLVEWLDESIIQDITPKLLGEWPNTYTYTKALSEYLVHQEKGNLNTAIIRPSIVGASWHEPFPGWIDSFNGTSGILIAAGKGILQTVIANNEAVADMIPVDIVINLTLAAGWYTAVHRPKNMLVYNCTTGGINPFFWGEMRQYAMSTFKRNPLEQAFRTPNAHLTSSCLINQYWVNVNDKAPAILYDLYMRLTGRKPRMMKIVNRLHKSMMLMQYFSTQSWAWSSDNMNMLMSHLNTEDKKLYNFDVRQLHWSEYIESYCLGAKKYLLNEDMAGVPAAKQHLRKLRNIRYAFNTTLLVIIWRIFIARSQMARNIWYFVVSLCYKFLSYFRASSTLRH

[5] = molecular target: T5, GgFAR2 (Gallus gallus, UniProt A0A3Q2TWV7, V159M/K457R); conditions: labelled acyl-CoA as co-substrate; pH 5.5, 37 C
T5 construct: gene FAR2; uropygial gland cDNA in pYES-DEST52, S. cerevisiae BY4741 dga1 lro1 membranes
T5 sequence (A0A3Q2TWV7 1-515 V159M/K457R): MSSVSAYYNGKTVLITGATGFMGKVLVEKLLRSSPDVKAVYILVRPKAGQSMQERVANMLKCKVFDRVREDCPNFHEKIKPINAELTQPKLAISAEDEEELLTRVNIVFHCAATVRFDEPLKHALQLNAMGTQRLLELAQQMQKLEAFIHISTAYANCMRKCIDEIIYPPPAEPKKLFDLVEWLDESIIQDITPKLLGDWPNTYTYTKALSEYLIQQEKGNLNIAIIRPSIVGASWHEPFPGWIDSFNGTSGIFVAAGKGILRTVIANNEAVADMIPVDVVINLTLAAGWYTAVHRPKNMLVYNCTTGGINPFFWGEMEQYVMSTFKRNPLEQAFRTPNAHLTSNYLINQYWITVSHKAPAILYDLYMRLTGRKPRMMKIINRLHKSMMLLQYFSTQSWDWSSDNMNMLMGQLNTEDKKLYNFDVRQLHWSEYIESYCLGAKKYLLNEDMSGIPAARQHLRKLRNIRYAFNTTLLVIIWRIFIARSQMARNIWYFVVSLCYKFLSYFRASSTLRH

Row | Structure (SMILES) | radio-TLC assay of yeast membrane fraction (alcohols + aldehydes) ([1]; 20 uM acyl-CoA, 5 mM NADPH, 1 mM MgCl2, 16 uM BSA, labelled compound) | radio-TLC assay of yeast membrane fraction (alcohols + aldehydes) [2] | radio-TLC assay of yeast membrane fraction (alcohols + aldehydes) [3] | radio-TLC assay of yeast membrane fraction (alcohols + aldehydes) [4] | radio-TLC assay of yeast membrane fraction (alcohols + aldehydes) [5] | radio-TLC assay of yeast membrane fraction (alcohols + aldehydes) ([1]; labelled acyl-CoA as co-substrate)
1 | CCCCCCCCCCCCCCCC(=O)SCCNC(=O)CCNC(=O)[C@H](O)C(C)(C)COP(=O)(O)OP(=O)(O)OC[C@H]1O[C@@H](n2cnc3c(N)ncnc32)[C@H](O)[C@@H]1OP(=O)(O)O [16:0-CoA] | only AdFAR1 of goose was almost equally active with all substrates |  |  |  |  | 
2 | NC(=O)C1=CN([C@@H]2O[C@H](COP(=O)(O)OP(=O)(O)OC[C@H]3O[C@@H](n4cnc5c(N)ncnc54)[C@H](OP(=O)(O)O)[C@@H]3O)[C@@H](O)[C@H]2O)C=CC1 [NADPH] |  | All FAR enzymes required NADPH as electron donor | All FAR enzymes required NADPH as electron donor | All FAR enzymes required NADPH as electron donor | All FAR enzymes required NADPH as electron donor | All FAR enzymes required NADPH as electron donor
